These results are taken from ChEMBL document CHEMBL4261525, “Design, facile synthesis and anthelmintic activity of new O-substituted 6-methoxybenzothiazole-2-carbamates. Part II” (2017).

Format in all cases: functional
The subject of assay [1] is Paramphistomum. The assay is described as follows: Anthelmintic activity against Paramphistomum assessed as mortality at 40 ug/ml after 4 hrs relative to control.
Assay [2] deals with Paramphistomum. The assay is described as follows: Anthelmintic activity against Paramphistomum assessed as mortality at 80 ug/ml after 1 hr relative to control.
For assay [3], the system named is Paramphistomum. The assay is described as follows: Anthelmintic activity against Paramphistomum assessed as mortality at 40 ug/ml after 1 hr relative to control.
In assay [4] the test system is Paramphistomum. The assay is described as follows: Anthelmintic activity against Paramphistomum assessed as mortality at 80 ug/ml after 6 hrs relative to control.
Assay [5] concerns Paramphistomum. Kind of assay: Anthelmintic activity against Paramphistomum assessed as mortality at 40 ug/ml after 2 hrs relative to control.
Assay [6] has as its system Paramphistomum. The assay is described as follows: Anthelmintic activity against Paramphistomum assessed as mortality at 80 ug/ml after 4 hrs relative to control.
In assay [7] the test system is Paramphistomum. The assay is described as follows: Anthelmintic activity against Paramphistomum assessed as mortality at 80 ug/ml after 2 hrs relative to control.
Assay [8] concerns Paramphistomum. The assay is described as follows: Anthelmintic activity against Paramphistomum assessed as mortality at 40 ug/ml after 6 hrs relative to control.

SMILES strings stand for the structures.

For the compound `CCSc1nnc(COc2ccc3nc(NC(=O)OC)sc3c2)o1`, the mortality at 40 µg/mL in assay [1] turned out to be 50%; in assay [3], 10%; in assay [5], 40%; in assay [8], 80%. Moreover, the mortality at 80 µg/mL in assay [2] worked out at 20%; in assay [4] it was 80%; in assay [6] it was 60%; in assay [7] it was 60%.
`O=C(Nc1cc(Cl)cc(Cl)c1O)c1c(O)c(Cl)cc(Cl)c1Cl` [OXYCLOZANIDE]: the mortality at 40 µg/mL in assay [1] amounted to 100%; in assay [3], 30%; in assay [5] it was 70%. The mortality at 80 µg/mL in assay [2] was 50%; in assay [7] it was 100%.
Consider `COC(=O)Nc1nc2ccc(OCc3nnc(S)n3-c3ccc(C)cc3)cc2s1`, for which the mortality at 40 µg/mL in assay [1], in assay [3], in assay [5] and in assay [8] was 0% each time. The mortality at 80 µg/mL in assay [2], in assay [4], in assay [6] and in assay [7] was 0% each time.
Take `COC(=O)Nc1nc2ccc(OCc3nnc(SCc4ccccc4)o3)cc2s1`: the mortality at 40 µg/mL in assay [1] came to 50%; in assay [3] it was 30%; in assay [5] it was 30%; in assay [8], 60%. Further, the mortality at 80 µg/mL turned out to be 30% in assay [2], 100% in assay [4], 90% in assay [6] and 60% in assay [7].
As for `CCOC(=O)CSc1nnc(COc2ccc3nc(NC(=O)OC)sc3c2)o1`, the mortality at 40 µg/mL in assay [1] turned out to be 30%; in assay [3], 10%; in assay [5], 20%; in assay [8], 30%. Besides, the mortality at 80 µg/mL in assay [2] was 20%; in assay [4], 60%; in assay [6] it was 50%; in assay [7] it was 30%.
For the compound `COC(=O)Nc1nc2ccc(OCc3nnc(SCC(=O)c4ccc(Cl)cc4)o3)cc2s1`, the mortality at 40 µg/mL in assay [1], in assay [3], in assay [5] and in assay [8] was 40% each time. Also, the mortality at 80 µg/mL came to 50% in assay [2], 100% in assay [6] and 70% in assay [7].
Take `C=CCSc1nnc(COc2ccc3nc(NC(=O)OC)sc3c2)o1`: the mortality at 40 µg/mL in assay [1] came to 50%; in assay [3], 20%; in assay [5] it was 30%; in assay [8], 70%. Moreover, the results for the mortality at 80 µg/mL in assay [2], in assay [6] and in assay [7] were 20%, 100% and 40%, respectively.
Consider `COC(=O)Nc1nc2ccc(OCc3nnc(S)n3-c3ccc(Cl)cc3)cc2s1`, for which the mortality at 40 µg/mL turned out to be 30% in assay [1], 10% in assay [3], 20% in assay [5] and 50% in assay [8]. Moreover, the mortality at 80 µg/mL in assay [2] was 20%; in assay [4] it was 80%; in assay [6], 50%; in assay [7] it was 20%.
For the compound `COC(=O)Nc1nc2ccc(OCc3nnc(SCC(=O)c4ccc(Br)cc4)o3)cc2s1`, the mortality at 40 µg/mL in assay [1] was determined as 60%; in assay [3] it was 20%; in assay [5], 40%; in assay [8], 60%. The mortality at 80 µg/mL in assay [2] was found to be 60%; in assay [7], 100%.
Turning to `COC(=O)Nc1nc2ccc(OCc3nnc(SC(=O)CCl)o3)cc2s1`, the mortality at 40 µg/mL stood at 20% in assay [1], 10% in assay [3], 10% in assay [5] and 20% in assay [8]. Moreover, the mortality at 80 µg/mL in assay [2] is 10%; in assay [4], 50%; in assay [6] it was 30%; in assay [7], 30%.
Take `COC(=O)Nc1nc2ccc(OCc3nnc(SC)o3)cc2s1`: the mortality at 40 µg/mL in assay [1] was 20%; in assay [3], 10%; in assay [5] it was 10%; in assay [8] it was 20%. Further, the mortality at 80 µg/mL was 10% in assay [2], 40% in assay [4], 30% in assay [6] and 20% in assay [7].
Take `COC(=O)Nc1nc2ccc(OCc3nnc(S)n3-c3ccccc3)cc2s1`: the mortality at 40 µg/mL in assay [1], in assay [3], in assay [5] and in assay [8] was 0% in each case. Further, the mortality at 80 µg/mL in assay [2], in assay [4], in assay [6] and in assay [7] was 0% each time.
For the compound `COC(=O)Nc1nc2ccc(OCc3nnc(SCC(=O)c4ccccc4)o3)cc2s1`, the mortality at 40 µg/mL worked out at 20% in assay [1], 10% in assay [3], 20% in assay [5] and 30% in assay [8]. The mortality at 80 µg/mL in assay [2] was 30%; in assay [4] it was 70%; in assay [6], 50%; in assay [7] it was 40%.
